# Reference: article PMC3764026, “Adaptive Evolution of Escherichia coli to an α-Peptide/β-Peptoid Peptidomimetic Induces Stable Resistance” (PLoS ONE, 2013)
# Read-outs that look alike come from different tables or passages of the source. Positions of bridges follow the written chain, without caps; N, C: chain ends. Non-standard residues stand in square brackets, D forms with d. Residues, ends and D or L forms follow the SMILES beside them. *: point of attachment. X1 = CC[C@H](C)CCCCC(=O)*; Dab = NCC[C@H](N)C(=O)O
# Columns and labels:
# [1] = test system: isolates from peptidomimetic 1-exposed E. coli ATCC 25922 lineages; settings: for change in MIC following acquisition of peptidomimetic resistance: isolate 2–7 vs wild type, biological duplicates; for cross-resistance: MIC as compared to the wild type: all twenty isolates from lineages no. 2 and 5, KR-12, IsCTp, melittin, PEP-1-K in 1% peptone instead of MHB
# Protocol: (§1) Continuous selection of resistance was performed for peptidomimetic 1 (Figure 1) and for the clinically relevant natural antimicrobial peptide, polymyxin B. A bacterial suspension of a single colony of E. coli ATCC 25922 was re-inoculated (10 µl) five times in unsupplemented MHB (990 µl). It was then re-inoculated in MHB supplemented with peptidomimetic 1 (ten lineages) or polymyxin B (ten lineages), and after ten re-inoculations at constant peptidomimetic or polymyxin B concentration, the concentrations were doubled. […] Four lineages grown in MHB with MilliQ water were included as control. Re-inoculations were performed twice a day, but were reduced to once a day when growth was slower as assessed by turbidity of the cultures. The total number of passages (supplemented with peptidomimetic/AMP) was 77 times equivalent to approx. 500 generations. For each increase in concentration the lineages were preserved as freezing stocks. Ten colony isolates were randomly selected from each lineage population at 32×MIC and preserved as freezing stocks.
# MIC was determined by using the micro-dilution method according to guidelines of the Clinical and Laboratory Standards Institute. Peptidomimetic 1 and erythromycin 1∶2 serial dilutions were prepared from 1024 µg/mL stock solutions to give a final range of 512-0.5 µg/mL in the wells. Ampicillin 1∶2 serial dilutions were prepared from a 256 µg/mL stock solution to give a final range of 128-0.13 µg/mL in the wells. Polymyxin B and gentamicin 1∶2 serial dilutions were prepared from a 64 µg/mL stock solution to give a final range of 32-0.03 µg/mL in the wells.
# The population lineages were tested for their susceptibility towards peptidomimetic 1, polymyxin B, gentamicin and ampicillin. Single-culture isolates selected from these populations were additionally tested against peptidomimetic 1, polymyxin B, erythromycin and the five reference AMPs. To estimate the level of cross-resistance to closely related peptidomimetics, MIC determinations were performed for peptidomimetics 2 and 3 (Figure 1) towards selected isolates. The bacterial suspensions were grown overnight in MHB at 37°C for determination of the population MIC, or individual isolates were grown overnight on non-selective BHI agar at 37°C. […] In all experiments, bacterial cells were suspended in 0.9% saline to give a turbidity of 0.13 at OD546 (approximately 1×10^8 CFU/mL) and diluted in MHB pH 7.4 to a final concentration of 5×10^5 CFU/mL in each well. Polypropylene plates (Nunc 442587) were used to minimize peptide binding, and the incubation time was 18–20 hours at 37°C. […] MIC was found in a minimum of two technical (population MIC) or biological (isolate MIC) replicates as the lowest concentration of the AMP or antibiotic where no visible growth was observed.
# [2] = test system: E. coli ATCC 25922 lineages adapted to peptidomimetic 1; format: cell-based, Escherichia coli; settings: for cross-resistance to conventional antibiotics: any of the lineages (peptidomimetic- and polymyxin B-exposed), population MIC, data not shown
# Protocol: as §1
# (§2) MIC was determined by using the micro-dilution method according to guidelines of the Clinical and Laboratory Standards Institute. Peptidomimetic 1 and erythromycin 1∶2 serial dilutions were prepared from 1024 µg/mL stock solutions to give a final range of 512-0.5 µg/mL in the wells. Ampicillin 1∶2 serial dilutions were prepared from a 256 µg/mL stock solution to give a final range of 128-0.13 µg/mL in the wells. Polymyxin B and gentamicin 1∶2 serial dilutions were prepared from a 64 µg/mL stock solution to give a final range of 32-0.03 µg/mL in the wells. Also, 1∶2 serial dilutions of the AMPs KR-12, IsCTp, melittin and PEP-1-K were prepared from 64 µg/mL stock solutions to give a final range of 32-0.03 µg/mL in the wells; however this was performed in 1% peptone instead of in MHB since activity was drastically diminished in the latter (not shown).
# (§3) The population lineages were tested for their susceptibility towards peptidomimetic 1, polymyxin B, gentamicin and ampicillin. Single-culture isolates selected from these populations were additionally tested against peptidomimetic 1, polymyxin B, erythromycin and the five reference AMPs. To estimate the level of cross-resistance to closely related peptidomimetics, MIC determinations were performed for peptidomimetics 2 and 3 (Figure 1) towards selected isolates. The bacterial suspensions were grown overnight in MHB at 37°C for determination of the population MIC, or individual isolates were grown overnight on non-selective BHI agar at 37°C. […] In all experiments, bacterial cells were suspended in 0.9% saline to give a turbidity of 0.13 at OD546 (approximately 1×10^8 CFU/mL) and diluted in MHB pH 7.4 to a final concentration of 5×10^5 CFU/mL in each well. Polypropylene plates (Nunc 442587) were used to minimize peptide binding, and the incubation time was 18–20 hours at 37°C. Incubation time was additionally extended up to 44 hours for the individual isolates due to a potential effect of growth rate on the outcome, but no effect was seen of this (not shown). MIC was found in a minimum of two technical (population MIC) or biological (isolate MIC) replicates as the lowest concentration of the AMP or antibiotic where no visible growth was observed.
# (§4) Frozen stocks were reconditioned in unsupplemented MHB media for five transfers (∼35 generations) at 37°C. The heritability of resistance was established through MIC determination of bacterial populations as described above.
# [3] = test system: E. coli ATCC 25922 control lineages; format: cell-based, Escherichia coli; settings: two technical duplicates
# Protocol: as §1, §2, §3, §4
# [4] = test system: E. coli ATCC 25922 lineages adapted to polymyxin B; format: cell-based, Escherichia coli; settings: for MIC against polymyxin after 35 generations w/o selection / MIC against polymyxin after selection: two technical duplicates; for MIC against polymyxin after selection: MHB pH 7.4, 37°C, 18–20 h
# Protocol: as §1, §2, §3, §4
# [5] = test system: Escherichia coli ATCC 25922; test: Continuous selection experiment; format: cell-based
# Protocol: as §1
# [6] = test system: Escherichia coli ATCC 25922; format: cell-based; settings: wild-type E. coli ATCC 25922; MHB pH 7.4, 5×10^5 CFU/mL, 37°C, 18–20 h
# Protocol: All experiments were performed with Escherichia coli ATCC 25922. Stock cultures of the wild-type strain and lineage isolates were stored at –80°C in 4% (w/v) glycerol, 0.5% (w/v) glucose, 2% (w/v) skimmed milk powder and 3% (w/v) tryptone soy powder. Lineage populations were frozen at –80°C in 50% (w/v) glycerol. All experiments were performed at 37°C. Experiments were carried out in cation-adjusted Mueller Hinton II broth (MHB) (Becton Dickinson 212322) adjusted to pH 7.4 or in 1% (w/v) peptone (Becton Dickinson 211677) for MIC determination of natural AMPs. Brain Heart Infusion (BHI) (CM1135) with agar (VWR 20768.292) 1.5% as gelling agent was used throughout for colony plating.
# as §2
# The population lineages were tested for their susceptibility towards peptidomimetic 1, polymyxin B, gentamicin and ampicillin. Single-culture isolates selected from these populations were additionally tested against peptidomimetic 1, polymyxin B, erythromycin and the five reference AMPs. To estimate the level of cross-resistance to closely related peptidomimetics, MIC determinations were performed for peptidomimetics 2 and 3 (Figure 1) towards selected isolates. […]
# [7] = the three most resistant isolates from lineage no. 2
compound,measurement,setting,value
lysozyme,change in MIC following acquisition of peptidomimetic resistance,[1],No changes
"CNC(C)C1CCC(N)C(OC2C(N)CC(N)C(OC3OCC(C)(O)C(NC)C3O)C2O)O1 (centres unmarked) [gentamicin, reference compound]",cross-resistance to conventional antibiotics,[2],No cross-resistance
"CC[C@H](C)CCCCC(=O)N[C@@H](CCN)C(=O)N[C@H](C(=O)N[C@@H](CCN)C(=O)N[C@H]1CCNC(=O)[C@H]([C@@H](C)O)NC(=O)[C@H](CCN)NC(=O)[C@H](CCN)NC(=O)[C@H](CC(C)C)NC(=O)[C@@H](Cc2ccccc2)NC(=O)[C@H](CCN)NC1=O)[C@@H](C)O [polymyxin B, Polymyxin B] (X1-[Dab]T[Dab][Dab][Dab][dF]L[Dab][Dab]T; lactam 4-C (inferred); N-terminus assumed)",MIC against polymyxin after 35 generations w/o selection,[3]; Control 1 lineage (MilliQ water),0.5 µg/mL
same,MIC against polymyxin after selection,"[3]; Control 1 lineage (MilliQ water, no polymyxin)",8 µg/mL
same,MIC against polymyxin after 35 generations w/o selection,[3]; Control 2 lineage (MilliQ water),0.5 to 1 µg/mL
same,MIC against polymyxin after selection,"[3]; Control 2 lineage (MilliQ water, no polymyxin)",1 µg/mL
same,cross-resistance after removal of the selection pressure,"[2]; peptidomimetic-exposed lineages, ~35 generations unsupplemented, became similar to controls, not shown",lost
same,MIC against polymyxin after 35 generations w/o selection,"[4]; polymyxin B-exposed lineage 2, five passages in unsupplemented MHB",32 µg/mL
same,MIC against polymyxin after selection,"[4]; polymyxin B-exposed lineage 2, population outgrown at 32×wt MIC",32 µg/mL
same,MIC against polymyxin after 35 generations w/o selection,"[4]; polymyxin B-exposed lineage 3, five passages in unsupplemented MHB",32 µg/mL
same,MIC against polymyxin after selection,"[4]; polymyxin B-exposed lineage 3, population outgrown at 32×wt MIC",32 µg/mL
same,MIC against polymyxin after 35 generations w/o selection,"[4]; polymyxin B-exposed lineage 4, five passages in unsupplemented MHB",32 µg/mL
same,MIC against polymyxin after selection,"[4]; polymyxin B-exposed lineage 4, population outgrown at 32×wt MIC",32 µg/mL
same,MIC against polymyxin after 35 generations w/o selection,"[4]; polymyxin B-exposed lineage 5, five passages in unsupplemented MHB",32 µg/mL
same,MIC against polymyxin after selection,"[4]; polymyxin B-exposed lineage 5, population outgrown at 32×wt MIC",32 µg/mL
same,MIC against polymyxin after 35 generations w/o selection,"[4]; polymyxin B-exposed lineage 6, five passages in unsupplemented MHB",32 µg/mL
same,MIC against polymyxin after selection,"[4]; polymyxin B-exposed lineage 6, population outgrown at 32×wt MIC",32 µg/mL
same,MIC against polymyxin after 35 generations w/o selection,"[4]; polymyxin B-exposed lineage 8, five passages in unsupplemented MHB",32 µg/mL
same,MIC against polymyxin after selection,"[4]; polymyxin B-exposed lineage 8, population outgrown at 32×wt MIC",32 µg/mL
same,MIC against polymyxin after 35 generations w/o selection,"[4]; polymyxin B-exposed lineage 9, five passages in unsupplemented MHB",32 µg/mL
same,MIC against polymyxin after selection,"[4]; polymyxin B-exposed lineage 9, population outgrown at 32×wt MIC",32 µg/mL
same,MIC against polymyxin after 35 generations w/o selection,"[4]; polymyxin B-exposed lineage 10, five passages in unsupplemented MHB",32 µg/mL
same,MIC against polymyxin after selection,"[4]; polymyxin B-exposed lineage 10, population outgrown at 32×wt MIC",32 µg/mL
same,increase in MIC as compared to the wild-type strain,[4]; the eight polymyxin B-exposed lineages after selection,32 fold
same,cross-resistance: MIC as compared to the wild type,[1]; not shown,did not find increased MIC values
same,lineages that eventually grew at 32×wt MIC,"[5]; ten lineages per agent, from 1/16×wt MIC, doubled stepwise, 77 inoculations, approx. 500 generations, 32×wt MIC = 256 µg/mL peptidomimetic 1, 32 µg/mL polymyxin B",eight out of ten
same,growth of unexposed control lineages at 4×wt MIC,"[5]; two controls per agent, 32 µg/mL peptidomimetic 1 or 4 µg/mL polymyxin B",one of the two controls
"CC1(C)S[C@@H]2[C@H](NC(=O)[C@H](N)c3ccccc3)C(=O)N2[C@H]1C(=O)O [ampicillin, reference compound]",cross-resistance to conventional antibiotics,[2],No cross-resistance
protamine [reference compound],cross-resistance: MIC as compared to the wild type,[1]; not shown,did not find increased MIC values
CC(=O)N[C@@H](CCCCNC(=N)N)C(=O)N(CCC(=O)N[C@@H](CCCCNC(=N)N)C(=O)N(CCC(=O)N[C@@H](CCCCNC(=N)N)C(=O)N(CCC(=O)N[C@@H](CCCCNC(=N)N)C(=O)N(CCC(=O)N[C@@H](CCCCNC(=N)N)C(=O)N(CCC(=O)N[C@@H](CCCCNC(=N)N)C(=O)N(CCC(N)=O)Cc1ccccc1)Cc1ccccc1)Cc1ccccc1)Cc1ccccc1)Cc1ccccc1)Cc1ccccc1 [peptidomimetic 3],wt MIC,[6],4 µg/mL
same,MIC,[1]; [7],32 µg/mL
same,MIC levels higher than seen for the wild type strain,[1]; [7],8 times
"CC[C@H]1OC(=O)[C@H](C)[C@@H](O[C@H]2C[C@@](C)(OC)[C@@H](O)[C@H](C)O2)[C@H](C)[C@@H](O[C@@H]2O[C@H](C)C[C@H](N(C)C)[C@H]2O)[C@](C)(O)C[C@@H](C)C(=O)[C@H](C)[C@@H](O)[C@]1(C)O [erythromycin, reference compound]",change in susceptibility as compared to the wild type,"[1]; the five highly resistant isolates of lineage no. 2 carrying the macrolide transporter mutation, not shown",No change
"melittin [melitin, reference compound]",cross-resistance: MIC as compared to the wild type,[1]; not shown,did not find increased MIC values
"OO [hydrogen peroxide, reference compound]",change in MIC following acquisition of peptidomimetic resistance,[1],No changes
